In patent US20250388605A1, “HETEROBIFUNCTIONAL COMPOUNDS AND METHODS OF TREATING DISEASE” (Halda Therapeutics OpCo, Inc., priority 2022, published 2025):

Tests used:
[1] = system: T-Rex 293 cell line SC3 cells having increased expression of androgen receptor protein due to exposure to doxycycline; test: Cellular growth inhibition, T-Rex 293 SC3 cells with doxycycline (increased androgen receptor expression), CellTiter-Glo; assay type: cell-based; conditions: T-Rex 293 SC3 cells with 10 ng/mL doxycycline (increased androgen receptor expression), 72 hours, CellTiter-Glo 2.0
Procedure, shortened: (§1)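 Growth inhibition is measured in an inducible AR-expressing T-Rex 293 clone, SC3, cultured with or without 10 ng/mL doxycycline in hormone-depleted medium. Test compounds are applied for 72 hours. GI50 values derive from CellTiter-Glo 2.0 signal fitted by four-parameter regression.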

[2] = system: T-Rex 293 cell line SC3 cells lacking increased expression of androgen receptor protein; test: Cellular growth inhibition, T-Rex 293 SC3 cells without doxycycline (no increased androgen receptor expression), CellTiter-Glo; assay type: cell-based; conditions: T-Rex 293 SC3 cells not exposed to doxycycline (no increased androgen receptor expression), 72 hours
Procedure, shortened: as §1

VCaP cells = test: Cellular growth inhibition assay for VCaP cells, CellTiter-Glo; assay type: cell-based, human; conditions: 72 hours
Procedure, shortened: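 GI50 values come from four-parameter curve fits of luminescence data normalized to a zero baseline. Compound, in medium with 0.5% DMSO, was added one day after plating and left for 72 h before CellTiter-Glo 2.0 addition.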

[3] = system: T-Rex 293 cell line SC cells having increased expression of progesterone receptor isoform B protein; test: Cellular growth inhibition assay, T-Rex 293 SC cells exposed to doxycycline (increased progesterone receptor isoform B expression), CellTiter-Glo; assay type: cell-based; conditions: T-Rex 293 SC cells with 10 ng/mL doxycycline (increased PR isoform B), 72 hours
Method: (§2) The SC cells were seeded on poly-D-lysine coated, black clear-bottom 384-well plates at 2500/well, in 25 μL Phenol Red Free Dulbecco's Modified Eagle Medium (DMEM) supplemented with 10% w/w charcoal-dextran treated fetal bovine serum (FBS) and 1% w/w pen-strep, with or without 10 ng/mL doxycycline. Pen-Strep is a commercially available mixture of penicillin G and streptomycin, which is used in mammalian cell culture media to prevent bacterial contamination. Phenol Red Free Dulbecco's Modified Eagle Medium (DMEM) supplemented with 10% w/w charcoal-dextran treated fetal bovine serum (FBS) and 1% w/w pen-strep, with or without 10 ng/mL doxycycline is herein referred to as Treatment Medium. Following seeding of cells in the plates, the plates were spun at 300×g for 30 seconds, then equilibrated to room temperature for 30 minutes, and then deposited in a humidified tissue culture incubator maintained at 37° C. with 5% CO2.
(§3) At 24 hours after seeding of the cells, dilutions of test compound were prepared in DMSO and dissolved in Treatment Medium, to achieve a final DMSO concentration of 0.5% w/w, thereby providing the Test Compound Solution. A 25 μL aliquot of the Test Compound Solution was added to cells in the well plates. An equal volume of a solution containing DMSO and Treatment Medium was used as a negative control. Following treatment of cells with Test Compound Solution or said equal volume of a solution containing DMSO and Treatment Medium, the plates were spun at 300×g for 30 seconds, and then left in an incubator for 72 hours.
(§4) At the end of the treatment duration, cell viability was quantified with CellTiter-Glo 2.0 reagent (Promega Cat #G9243). For this purpose, plates were equilibrated to room temperature for 30 minutes, and then 25 μL of CellTiter-Glo 2.0 reagent was added to cells in the plate wells. Plates were then agitated on a shaker for two minutes at 500 rpm and subsequently incubated at room temperature for 10 minutes. Following incubation, the plates were spun at 3000×g for 30 seconds, then sealed with an optical adhesive cover, and luminescence readings were measured with an EnVision Plate Reader (Perkin Elmer).
(§5) Data was normalized using zero luminescence for baseline. A four-parameter non-linear regression curve fit was applied to dose-response data in GraphPad Prism data analysis software to determine the half-maximal growth inhibitory concentration (GI50) for each test compound.

[4] = system: T-Rex 293 cell line SC cells lacking increased expression of progesterone receptor isoform B protein; test: Cellular growth inhibition assay, T-Rex 293 SC cells not exposed to doxycycline (no increased progesterone receptor isoform B expression), CellTiter-Glo; assay type: cell-based; conditions: T-Rex 293 SC cells without doxycycline (no increased PR isoform B), 72 hours
Method: as §2, §3, §4, §5

T47D cells = test: Cellular Growth Inhibition Assay for T47D Cells (CellTiter-Glo); assay type: cell-based, human; conditions: 72 hours
Procedure, shortened: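 GI50 values derive from four-parameter regression of CellTiter-Glo 2.0 luminescence, using zero luminescence as baseline. Human breast cancer T47D cells (3000/well; DMEM, 10% FBS, 0.2 units/mL insulin) were exposed for 72 h to compound dilutions at 0.5% DMSO, with dosing starting 24 h after seeding.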

BRD4-BD1 = target: T1, BRD4-BD1 (Homo sapiens, UniProt O60885); test: Binding affinity to BRD4-BD1 (bromoKdELECT assay); conditions: 11-point 3-fold dilution series
T1 construct: made in house; host or cells: T7 phage grown in an E. coli host derived from the BL21 strain
Method: (§6) Compounds were tested using a bromoKdELECT assay. T7 phage strains displaying bromodomains were grown in parallel in 24-well blocks in an E. coli host derived from the BL21 strain. E. coli were grown to log-phase and infected with T7 phage from a frozen stock (multiplicity of infection=0.4) and incubated with shaking at 32° C. until lysis (90-150 minutes). The lysates were centrifuged (5,000×g) and filtered ([…]) to remove cell debris. Streptavidin-coated magnetic beads were treated with biotinylated small molecule or acetylated peptide ligands for 30 minutes at room temperature to generate affinity resins for bromodomain assays. The liganded beads were blocked with excess biotin and washed with blocking buffer (SeaBlock (Pierce), 1% BSA, 0.05% Tween 20, 1 mM DTT) to remove unbound ligand and to reduce nonspecific phage binding. Binding reactions were assembled by combining bromodomains, liganded affinity beads, and test compounds in 1× binding buffer (17% SeaBlock, 0.33×PBS, 0.04% Tween 20, 0.02% BSA, 0.004% Sodium azide, 7.4 mM DTT). Test compounds were prepared as 1000× stocks in 100% DMSO. Kds were determined using an 11-point 3-fold compound dilution series with one DMSO control point. All compounds for Kd measurements are distributed by acoustic transfer (non-contact dispensing) in 100% DMSO. The compounds were then diluted directly into the assays such that the final concentration of DMSO was 0.09%. All reactions performed in polypropylene 384-well plates. Each was a final volume of 0.02 ml. The assay plates were incubated at room temperature with shaking for 1 hour and the affinity beads were washed with wash buffer (1×PBS, 0.05% Tween 20). The beads were then resuspended in elution buffer (1×PBS, 0.05% Tween 20, 2 M non-biotinylated affinity ligand) and incubated at room temperature with shaking for 30 minutes. The bromodomain concentration in the eluates was measured by qPCR.

BRD4-BD2 = target: T2, BRD4-BD2 (Homo sapiens, UniProt O60885); test: Binding affinity to BRD4-BD2 (bromoKdELECT assay); conditions: 11-point 3-fold dilution series
T2 construct: made in house; host or cells: T7 phage grown in an E. coli host derived from the BL21 strain
Method: as §6, with “2 μM” for “2 M”

CCS(=O)(=O)Nc1ccc(Oc2cccc(OCCCC3CCN(c4ncc(C(=O)N[C@H]5C(C)(C)[C@H](Oc6ccc(C#N)c(Cl)c6)C5(C)C)cn4)CC3)c2)c(-c2cn(C)c(=O)c3[nH]ccc23)c1 [Compound I-27]
GI50 [1]: < 500 nM | GI50 [2]: 500 to 1500 nM | GI50 (VCaP cells; Homo sapiens): < 500 nM | GI50 [3]: < 500 nM | GI50 [4]: > 3000 nM | GI50 (T47D cells; Homo sapiens): < 500 nM

CCS(=O)(=O)Nc1ccc(Oc2cccc(N3CCC(CC4CCN(c5ncc(C(=O)N[C@H]6C(C)(C)[C@H](Oc7ccc(C#N)c(Cl)c7)C6(C)C)cn5)CC4)CC3)c2)c(-c2cn(C)c(=O)c3[nH]ccc23)c1 [Compound I-36]
GI50 [1]: < 500 nM | GI50 [2]: > 3000 nM | GI50 (VCaP cells; Homo sapiens): < 500 nM | GI50 [3]: < 500 nM | GI50 [4]: > 3000 nM | GI50 (T47D cells; Homo sapiens): < 500 nM

CCS(=O)(=O)Nc1ccc(Oc2cccc(OC3CC4(CCN(c5ncc(C(=O)N[C@H]6C(C)(C)[C@H](Oc7ccc(C#N)c(Cl)c7)C6(C)C)cn5)CC4)C3)c2)c(-c2cn(C)c(=O)c3[nH]ccc23)c1 [Compound I-44]
GI50 [1]: < 500 nM | GI50 [2]: > 3000 nM | GI50 (VCaP cells; Homo sapiens): < 500 nM | GI50 [3]: < 500 nM | GI50 [4]: > 3000 nM | GI50 (T47D cells; Homo sapiens): < 500 nM

Cn1cc(-c2cc(NS(=O)(=O)CC(F)(F)F)ccc2Oc2cccc(OCCOC3CCN(c4ncc(C(=O)N[C@H]5C(C)(C)[C@H](Oc6ccc(C#N)c(Cl)c6)C5(C)C)cn4)CC3)c2F)c2cc[nH]c2c1=O [Compound I-153]
Kd (BRD4-BD1): 500 to 2500 nM | Kd (BRD4-BD2): < 50 nM | GI50 [1]: < 500 nM | GI50 [2]: < 500 nM | GI50 (VCaP cells; Homo sapiens): < 500 nM

CCS(=O)(=O)Nc1ccc(Oc2cccc(N3CC(OC4CCN(c5ncc(C(=O)N[C@H]6C(C)(C)[C@H](Oc7ccc(C#N)c(Cl)c7)C6(C)C)cn5)CC4)C3)c2F)c(-c2cn(C)c(=O)c3[nH]ccc23)c1 [Compound I-175]
GI50 [1]: < 500 nM | GI50 [2]: < 500 nM | GI50 (VCaP cells): < 500 nM | GI50 [3]: < 500 nM | GI50 [4]: > 3000 nM | GI50 (T47D cells): < 500 nM

CCS(=O)(=O)c1ccc(OC(COCCOC2CCN(c3ncc(C(=O)NC4C(C)(C)C(Oc5ccc(C#N)c(Cl)c5)C4(C)C)cn3)CC2)C2CC2)c(-c2cn(C)c(=O)c3[nH]ccc23)c1 (stereo not shown) [Compound I-186, N-[3-(3-chloro-4-cyano-phenoxy)-2,2,4,4-tetramethyl-cyclobutyl]-2-[4-[2-[2-cyclopropyl-2-[4-ethylsulfonyl-2-(6-methyl-7-oxo-1H-pyrrolo[2,3-c]pyridin-4-yl)phenoxy]ethoxy]ethoxy]-1-piperidyl]pyrimidine-5-carboxamide]
Kd (BRD4-BD1): 50 to 500 nM | Kd (BRD4-BD2): 50 to 500 nM | GI50 [1]: < 500 nM | GI50 [2]: < 500 nM | GI50 (VCaP cells; Homo sapiens): < 500 nM

CCS(=O)(=O)Nc1ccc(OCC(OCCCOC2CCN(c3ncc(C(=O)N[C@H]4C(C)(C)[C@H](Oc5ccc(C#N)c(Cl)c5)C4(C)C)cn3)CC2)C2CC2)c(-c2cn(C)c(=O)c3[nH]ccc23)c1 (stereo partly shown) [Compound I-187]
Kd (BRD4-BD1): 50 to 500 nM | Kd (BRD4-BD2): 500 to 2500 nM | GI50 [1]: < 500 nM | GI50 [2]: > 3000 nM | GI50 (VCaP cells): < 500 nM

CN(CCc1ccc(Oc2ccc(C(C)(C)O)cc2-c2cn(C)c(=O)c3[nH]ccc23)cc1)c1ncc(C(=O)N[C@H]2C(C)(C)[C@H](Oc3ccc(C#N)c(Cl)c3)C2(C)C)cn1 [Compound I-198]
GI50 [1]: < 500 nM | GI50 [2]: < 500 nM | GI50 (VCaP cells; Homo sapiens): < 500 nM | GI50 [3]: < 500 nM | GI50 [4]: < 500 nM | GI50 (T47D cells; Homo sapiens): < 500 nM

CN(CCOc1ccc(Oc2ccc(C(C)(C)O)cc2-c2cn(C)c(=O)c3[nH]ccc23)cc1)c1ncc(C(=O)N[C@H]2C(C)(C)[C@H](Oc3ccc(C#N)c(Cl)c3)C2(C)C)cn1 [Compound I-199]
GI50 [1]: < 500 nM | GI50 [2]: < 500 nM | GI50 (VCaP cells; Homo sapiens): < 500 nM | GI50 [3]: < 500 nM | GI50 [4]: < 500 nM | GI50 (T47D cells; Homo sapiens): < 500 nM

CN(CCCOc1ccc(Oc2ccc(C(C)(C)O)cc2-c2cn(C)c(=O)c3[nH]ccc23)cc1)c1ncc(C(=O)N[C@H]2C(C)(C)[C@H](Oc3ccc(C#N)c(Cl)c3)C2(C)C)cn1 [Compound I-200]
GI50 [1]: < 500 nM | GI50 [2]: 500 to 1500 nM | GI50 (VCaP cells; Homo sapiens): < 500 nM | GI50 [3]: < 500 nM | GI50 [4]: < 500 nM | GI50 (T47D cells; Homo sapiens): 500 to 1500 nM

CCS(=O)(=O)c1ccc(Oc2cccc(OCCN3CCN(c4ncc(C(=O)N[C@H]5C(C)(C)[C@H](Oc6ccc(C#N)c(Cl)c6)C5(C)C)cn4)CC3)c2F)c(-c2cn(C)c(=O)c3[nH]ccc23)c1 [Compound I-207]
GI50 [1]: < 500 nM | GI50 [2]: < 500 nM | GI50 (VCaP cells): < 500 nM | GI50 [3]: < 500 nM | GI50 [4]: < 500 nM

Cn1cc(-c2cc(C(C)(C)O)ccc2Oc2ccc(CC3CC4(CCN(c5ncc(C(=O)N[C@H]6C(C)(C)[C@H](Oc7ccc(C#N)c(Cl)c7)C6(C)C)cn5)CC4)C3)cc2)c2cc[nH]c2c1=O [Compound I-279]
GI50 [1]: < 500 nM | GI50 [2]: > 3000 nM | GI50 (VCaP cells; Homo sapiens): < 500 nM | GI50 [3]: < 500 nM | GI50 [4]: > 3000 nM
